Test results reported in US20070117743A1, “New antitumoral compounds” (priority 2003, published 2007).
Where two headings read alike, the source gives them in different places. Where a SMILES comes first, the peptide text is derived from it. Bridges are numbered along the chain shown (N, C = ends). [ ]: non-standard residue; d: D form. The star is where a group is joined. d(aIle) = CC[C@H](C)[C@@H](N)C(=O)O; d(aThr) = C[C@@H](O)[C@@H](N)C(=O)O; hCha = N[C@@H](CCC1CCCCC1)C(=O)O; Hexanoyl(5-Me) = CC(C)CCCC(=O)*; Orn = NCCC[C@H](N)C(=O)O; Dhb = C/C=C(\N)C(=O)O

Legend:
Assay type in all cases: cell-based, human
HeLa = experiment: SRB colorimetric assay of cell growth and viability, HeLa; settings: 48 hours exposure; for CC50: read-out: LC50 HELA
SK-BR-3 = experiment: SRB colorimetric assay of cell growth and viability, SK-BR-3; settings: 48 hours exposure
IGROV-1 = experiment: SRB colorimetric assay of cell growth and viability, IGROV-1; settings: 48 hours exposure
HeLa-APL = experiment: SRB colorimetric assay of cell growth and viability, HeLa-APL; settings: 48 hours exposure; for CC50: read-out: LC50 HELA-APL
A-549 = experiment: SRB colorimetric assay of cell growth and viability, A-549; settings: 48 hours exposure; for GI50: read-out: GI50 A-549; for CC50: read-out: LC50 A-549
LNCaP = experiment: SRB colorimetric assay of cell growth and viability, LNCaP; settings: 48 hours exposure; for GI50: read-out: GI50 LN-caP; for CC50: read-out: LC50 LN-caP
DU-145 = experiment: SRB colorimetric assay of cell growth and viability, DU-145; settings: 48 hours exposure
LoVo = experiment: SRB colorimetric assay of cell growth and viability, LoVo; settings: 48 hours exposure; for CC50: read-out: LC50 LOVO
IGROV-ET = experiment: SRB colorimetric assay of cell growth and viability, IGROV-ET; settings: 48 hours exposure; for CC50: read-out: LC50 IGROV-ET
K-562 = experiment: SRB colorimetric assay of cell growth and viability, K-562; settings: 48 hours exposure; for CC50: read-out: LC50 K-562
LoVo-Dox = experiment: SRB colorimetric assay of cell growth and viability, LoVo-Dox; settings: 48 hours exposure; for CC50: read-out: LC50 LOVO-DOX
Procedure, shortened: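 Tumor cells are continuously exposed to sample for 48 hours, with vehicle DMSO:EtOH:PBS (0.5:0.5:99), after an 18-hour drug-free attachment period. Bound SRB, measured at 490 nm, reflects cell mass; GI, TGI and LC are derived from triplicate means.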

HT-29 = experiment: SRB colorimetric assay of cell growth and viability, HT-29; settings: 48 hours exposure; for GI50: read-out: GI50 HT-29; for CC50: read-out: LC50 HT-29
SK-MEL-28 = experiment: SRB colorimetric assay of cell growth and viability, SK-MEL-28; settings: 48 hours exposure; for CC50: read-out: LC50 MEL-28
PANC-1 = experiment: SRB colorimetric assay of cell growth and viability, PANC-1; settings: 48 hours exposure; for CC50: read-out: LC50 PANC-1

C/C=C1\NC(=O)[C@H](Cc2ccccc2)NC(=O)[C@@H](C(C)C)NC(=O)[C@@H]([C@@H](C)CC)NC(=O)[C@H](NC(=O)[C@H](NC(=O)[C@H](CCCN)NC(=O)[C@H]2CCCN2C(=O)[C@H](NC(=O)[C@H](CCC(=O)O)NC(=O)[C@@H](NC(=O)[C@H](NC(=O)CCCC(C)C)C(C)C)[C@@H](C)O)C(C)C)[C@@H](C)CC)[C@@H](C)OC(=O)[C@H](C(C)C)NC1=O [Compound 51, [Glu^11]-KF] ({Hexanoyl(5-Me)}-[dV]TE[dV][dP][Orn][d(aIle)][d(aThr)][d(aIle)][dV]F[Dhb]V; ester 8-C)
GI50 (HeLa): 6.63 µM
TGI HELA (HeLa): 6.63E−06 Molar
CC50 (HeLa): 6.63 µM
GI50 (SK-BR-3): 6.63 µM
LC50 (SK-BR-3): 6.63 µM
TGI SK-BR-3 (SK-BR-3): 6.63E−06 Molar
GI50 (IGROV-1): 6.63 µM
LC50 (concentration causing 50% net cell killing) (IGROV-1): 6.63 µM
TGI IGROV (IGROV-1): 6.63E−06 Molar
GI50 (HeLa-APL): 6.63 µM
TGI HELA-APL (HeLa-APL): 6.63E−06 Molar
CC50 (HeLa-APL): 6.63 µM
TGI A-549 (A-549): 6.63E−06 Molar
GI50 (A-549): 6.63 µM
CC50 (A-549): 6.63 µM
TGI LN-caP (LNCaP): 6.63E−06 Molar
GI50 (LNCaP): 6.63 µM
CC50 (LNCaP): 6.63 µM
GI50 (DU-145): 6.63 µM
LC50 (concentration causing 50% net cell kill) (DU-145): 6.63 µM
TGI DU-145 (DU-145): 6.63E−06 Molar
GI50 (LoVo): 6.63 µM
TGI LOVO (LoVo): 6.63E−06 Molar
CC50 (LoVo): 6.63 µM
GI50 (IGROV-ET): 6.63 µM
TGI IGROV-ET (IGROV-ET): 6.63E−06 Molar
CC50 (IGROV-ET): 6.63 µM
GI50 (K-562): 6.63 µM
TGI K-562 (K-562): 6.63E−06 Molar
CC50 (K-562): 6.63 µM
GI50 (LoVo-Dox): 6.63 µM
TGI LOVO-DOX (LoVo-Dox): 6.63E−06 Molar
CC50 (LoVo-Dox): 6.63 µM
TGI HT-29 (HT-29): 6.63E−06 Molar
GI50 (HT-29): 6.63 µM
CC50 (HT-29): 6.63 µM
GI50 (SK-MEL-28): 6.63 µM
TGI MEL-28 (SK-MEL-28): 6.63E−06 Molar
CC50 (SK-MEL-28): 6.63 µM
GI50 (PANC-1): 6.63 µM
TGI PANC-1 (PANC-1): 6.63E−06 Molar
CC50 (PANC-1): 6.63 µM

C/C=C1\NC(=O)[C@H](Cc2ccccc2)NC(=O)[C@@H](C(C)C)NC(=O)[C@@H]([C@@H](C)CC)NC(=O)[C@H](NC(=O)[C@H](NC(=O)[C@H](CCCN)NC(=O)[C@H]2CCCN2C(=O)[C@H](NC(=O)[C@@H](NC(=O)[C@H](CCC(N)=O)NC(=O)CCCC(C)C)C(C)C)C(C)C)[C@@H](C)CC)[C@@H](C)OC(=O)[C@H](C(C)C)NC1=O [Compound 58, [Gln^12, noD-Val^13]-KF] ({Hexanoyl(5-Me)}-QV[dV][dP][Orn][d(aIle)][d(aThr)][d(aIle)][dV]F[Dhb]V; ester 7-C)
GI50 (HeLa; SRB): ≥ 7.11 µM
TGI HELA (HeLa; SRB): 7.11E−06 Molar
CC50 (HeLa; SRB): ≥ 7.11 µM
GI50 (SK-BR-3): ≥ 7.11 µM
LC50 (SK-BR-3): ≥ 7.11 µM
TGI SK-BR-3 (SK-BR-3): 7.11E−06 Molar
GI50 (IGROV-1): ≥ 7.11 µM
LC50 (concentration causing 50% net cell killing) (IGROV-1): ≥ 7.11 µM
TGI IGROV (IGROV-1): 7.11E−06 Molar
GI50 (HeLa-APL; SRB): ≥ 7.11 µM
TGI HELA-APL (HeLa-APL; SRB): 7.11E−06 Molar
CC50 (HeLa-APL; SRB): ≥ 7.11 µM
TGI A-549 (A-549; SRB): 7.11E−06 Molar
GI50 (A-549; SRB): ≥ 7.11 µM
CC50 (A-549; SRB): ≥ 7.11 µM
TGI LN-caP (LNCaP): 7.11E−06 Molar
GI50 (LNCaP): ≥ 7.11 µM
CC50 (LNCaP): ≥ 7.11 µM
GI50 (DU-145): ≥ 7.11 µM
LC50 (concentration causing 50% net cell kill) (DU-145): ≥ 7.11 µM
TGI DU-145 (DU-145): 7.11E−06 Molar
GI50 (LoVo; SRB): ≥ 7.11 µM
TGI LOVO (LoVo; SRB): 7.11E−06 Molar
CC50 (LoVo; SRB): ≥ 7.11 µM
GI50 (IGROV-ET): ≥ 7.11 µM
TGI IGROV-ET (IGROV-ET): 7.11E−06 Molar
CC50 (IGROV-ET): ≥ 7.11 µM
GI50 (K-562; SRB): ≥ 7.11 µM
TGI K-562 (K-562; SRB): 7.11E−06 Molar
CC50 (K-562; SRB): ≥ 7.11 µM
GI50 (LoVo-Dox; SRB): ≥ 7.11 µM
TGI LOVO-DOX (LoVo-Dox; SRB): 7.11E−06 Molar
CC50 (LoVo-Dox; SRB): ≥ 7.11 µM
TGI HT-29 (HT-29; SRB): 7.11E−06 Molar
GI50 (HT-29; SRB): ≥ 7.11 µM
CC50 (HT-29; SRB): ≥ 7.11 µM
GI50 (SK-MEL-28): ≥ 7.11 µM
TGI MEL-28 (SK-MEL-28): 7.11E−06 Molar
CC50 (SK-MEL-28): ≥ 7.11 µM
GI50 (PANC-1; SRB): ≥ 7.11 µM
TGI PANC-1 (PANC-1; SRB): 7.11E−06 Molar
CC50 (PANC-1; SRB): ≥ 7.11 µM

C/C=C1\NC(=O)[C@H](CCC2CCCCC2)NC(=O)[C@@H](C(C)C)NC(=O)[C@@H]([C@@H](C)CC)NC(=O)[C@H](NC(=O)[C@H](NC(=O)[C@H](CCCN)NC(=O)[C@H]2CCCN2C(=O)[C@H](NC(=O)[C@@H](NC(=O)[C@@H](NC(=O)[C@H](NC(=O)CCCC(C)C)C(C)C)[C@@H](C)O)C(C)C)C(C)C)[C@@H](C)CC)[C@@H](C)OC(=O)[C@H](C(C)C)NC1=O [Compound 63, 5-MeHex-D-Val-Thr-Val-D-Val-D-Pro-Orn-D-allo-Ile-cyclo[D-allo-Thr-D-alo-Ile-D-Val-hCh-(Z)-Dhb-Val]] ({Hexanoyl(5-Me)}-[dV]TV[dV][dP][Orn][d(aIle)][d(aThr)][d(aIle)][dV][hCha][Dhb]V; ester 8-C)
GI50 (HeLa; HELA): 0.175 µM
TGI HELA (HeLa; HELA): 4.99E−07 Molar
CC50 (HeLa; HELA): 2.06 µM
GI50 (SK-BR-3; SRB): 0.0748 µM
LC50 (SK-BR-3; SRB): 0.465 µM
TGI SK-BR-3 (SK-BR-3; SRB): 1.86E−07 Molar
GI50 (IGROV-1; SRB): 0.128 µM
LC50 (concentration causing 50% net cell killing) (IGROV-1; SRB): 2 µM
TGI IGROV (IGROV-1; SRB): 4.29E−07 Molar
GI50 (HeLa-APL; HELA-APL): 0.292 µM
TGI HELA-APL (HeLa-APL; HELA-APL): 1.09E−06 Molar
CC50 (HeLa-APL; HELA-APL): 3.23 µM
TGI A-549 (A-549; A-549): 1.60E−06 Molar
GI50 (A-549; A-549): 0.728 µM
CC50 (A-549; A-549): 3.48 µM
TGI LN-caP (LNCaP; SRB): 1.21E−06 Molar
GI50 (LNCaP; SRB): 0.336 µM
CC50 (LNCaP; SRB): 2.85 µM
GI50 (DU-145; SRB): 0.119 µM
LC50 (concentration causing 50% net cell kill) (DU-145; SRB): 1.55 µM
TGI DU-145 (DU-145; SRB): 4.25E−07 Molar
GI50 (LoVo; LOVO): 0.122 µM
TGI LOVO (LoVo; LOVO): 2.40E−07 Molar
CC50 (LoVo; LOVO): 0.469 µM
GI50 (IGROV-ET; SRB): 0.0761 µM
TGI IGROV-ET (IGROV-ET; SRB): 2.01E−07 Molar
CC50 (IGROV-ET; SRB): 0.529 µM
GI50 (K-562; K-562): 1.48 µM
TGI K-562 (K-562; K-562): 2.63E−06 Molar
CC50 (K-562; K-562): 4.69 µM
GI50 (LoVo-Dox; LOVO-DOX): 0.13 µM
TGI LOVO-DOX (LoVo-Dox; LOVO-DOX): 2.56E−07 Molar
CC50 (LoVo-Dox; LOVO-DOX): 0.502 µM
TGI HT-29 (HT-29; HT-29): 3.22E−07 Molar
GI50 (HT-29; HT-29): 0.132 µM
CC50 (HT-29; HT-29): 1.13 µM
GI50 (SK-MEL-28; SRB): 0.828 µM
TGI MEL-28 (SK-MEL-28; SRB): 1.77E−06 Molar
CC50 (SK-MEL-28; SRB): 3.79 µM
GI50 (PANC-1; PANC-1): 1.05 µM
TGI PANC-1 (PANC-1; PANC-1): 2.10E−06 Molar
CC50 (PANC-1; PANC-1): 4.21 µM
